In publication PMC6193938, “Characterization of a novel AICARFT inhibitor which potently elevates ZMP and has anti-tumor activity in murine models” (Scientific Reports, 2018):

Legend:
EGFR = target: T1, EGFR (Homo sapiens, UniProt P00533); experiment: CEREP protein kinase assay; format: biochemical
T1 construct: purchased CEREP Panlabs (Eurofins)

[1] = test system: AMPK T172 phosphorylation in A9 tumors; experiment: Western analysis of tumors; format: in vivo, mouse; details: 100 mg/kg x12 PO
MDA-MB-231met2 xenograft = experiment: Antitumor efficacy and tumor metabolites, mouse xenograft; format: in vivo; details: after 22 days of dosing
protein kinase = experiment: Panel of protein kinase assays at CEREP Panlabs (Eurofins), overall; format: biochemical
WEE1 = target: T2, WEE1 (Homo sapiens, UniProt P30291); experiment: CEREP protein kinase assay; format: biochemical
T2 construct: purchased CEREP Panlabs (Eurofins)

BRK = target: T3, BRK (Homo sapiens, UniProt Q13882); experiment: CEREP protein kinase assay; format: biochemical
T3 construct: purchased CEREP Panlabs (Eurofins)

ROCK1 = target: T4, ROCK1 (Homo sapiens, UniProt Q13464); experiment: CEREP protein kinase assay; format: biochemical
T4 construct: purchased CEREP Panlabs (Eurofins)

SGK1 = target: T5, SGK1 (Homo sapiens, UniProt O00141); experiment: CEREP protein kinase assay; format: biochemical
T5 construct: purchased CEREP Panlabs (Eurofins)
T5 sequence (O00141 1-431): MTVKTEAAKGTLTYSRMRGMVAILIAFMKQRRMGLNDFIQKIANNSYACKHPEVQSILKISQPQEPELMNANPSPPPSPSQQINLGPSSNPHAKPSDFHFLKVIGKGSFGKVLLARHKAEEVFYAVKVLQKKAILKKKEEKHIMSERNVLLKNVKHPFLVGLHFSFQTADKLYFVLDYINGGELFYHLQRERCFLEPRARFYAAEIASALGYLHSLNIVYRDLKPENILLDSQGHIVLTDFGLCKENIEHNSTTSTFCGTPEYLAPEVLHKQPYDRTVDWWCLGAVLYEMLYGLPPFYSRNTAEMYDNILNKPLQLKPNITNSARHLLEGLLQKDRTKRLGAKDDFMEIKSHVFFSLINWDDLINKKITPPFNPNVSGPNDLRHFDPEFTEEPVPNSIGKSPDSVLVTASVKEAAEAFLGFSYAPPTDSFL

IGF1R = target: T6, IGF1R (Homo sapiens, UniProt P08069); experiment: CEREP protein kinase assay; format: biochemical
T6 construct: purchased CEREP Panlabs (Eurofins)

FLT1 = target: T7, FLT1 (Homo sapiens, UniProt P17948); experiment: CEREP protein kinase assay; format: biochemical
T7 construct: purchased CEREP Panlabs (Eurofins)

PKAa = target: T8, PKAa (Homo sapiens, UniProt P17612); experiment: CEREP protein kinase assay; format: biochemical
T8 construct: purchased CEREP Panlabs (Eurofins)

AKT1 = target: T9, AKT1 (Homo sapiens, UniProt P31749); experiment: CEREP protein kinase assay; format: biochemical
T9 construct: purchased CEREP Panlabs (Eurofins)

CDK2 = target: T10, CDK2 (Homo sapiens, UniProt P24941); experiment: CEREP protein kinase assay; format: biochemical
T10 construct: purchased CEREP Panlabs (Eurofins)

ABL = target: T11, ABL (Homo sapiens, UniProt P00519); experiment: CEREP protein kinase assay; format: biochemical
T11 construct: purchased CEREP Panlabs (Eurofins)

PKCb2 = target: T12, PKCb2 (Homo sapiens, UniProt P05771); experiment: CEREP protein kinase assay; format: biochemical
T12 construct: purchased CEREP Panlabs (Eurofins)

DYRK2 = target: T13, DYRK2 (Homo sapiens, UniProt Q92630); experiment: CEREP protein kinase assay; format: biochemical
T13 construct: purchased CEREP Panlabs (Eurofins)
T13 sequence (Q92630 1-601): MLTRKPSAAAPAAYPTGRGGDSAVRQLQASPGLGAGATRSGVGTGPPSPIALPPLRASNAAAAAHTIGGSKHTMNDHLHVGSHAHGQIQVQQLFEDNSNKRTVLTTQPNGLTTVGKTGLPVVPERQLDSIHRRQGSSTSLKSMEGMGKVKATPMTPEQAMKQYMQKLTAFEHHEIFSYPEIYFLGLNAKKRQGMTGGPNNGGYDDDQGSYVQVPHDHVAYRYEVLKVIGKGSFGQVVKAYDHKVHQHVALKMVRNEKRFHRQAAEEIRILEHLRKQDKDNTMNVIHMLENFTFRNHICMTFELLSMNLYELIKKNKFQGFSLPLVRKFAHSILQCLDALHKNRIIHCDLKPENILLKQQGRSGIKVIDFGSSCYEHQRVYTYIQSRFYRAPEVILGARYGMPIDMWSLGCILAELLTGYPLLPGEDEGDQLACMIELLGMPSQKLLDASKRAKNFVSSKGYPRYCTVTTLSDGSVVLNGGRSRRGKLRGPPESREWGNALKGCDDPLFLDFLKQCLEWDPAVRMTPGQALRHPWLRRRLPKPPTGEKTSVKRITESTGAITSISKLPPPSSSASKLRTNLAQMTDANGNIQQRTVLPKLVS

FMS = target: T14, FMS (Homo sapiens, UniProt P07333); experiment: CEREP protein kinase assay; format: biochemical
T14 construct: purchased CEREP Panlabs (Eurofins)

MNK2 = target: T15, MNK2 (Homo sapiens, UniProt Q9HBH9); experiment: CEREP protein kinase assay; format: biochemical
T15 construct: purchased CEREP Panlabs (Eurofins)

CDK1 = target: T16, CDK1 (Homo sapiens, UniProt P06493); experiment: CEREP protein kinase assay; format: biochemical
T16 construct: purchased CEREP Panlabs (Eurofins)

MET = target: T17, MET (Homo sapiens, UniProt P08581); experiment: CEREP protein kinase assay; format: biochemical
T17 construct: purchased CEREP Panlabs (Eurofins)

T15 sequence (Q9HBH9 whole entry): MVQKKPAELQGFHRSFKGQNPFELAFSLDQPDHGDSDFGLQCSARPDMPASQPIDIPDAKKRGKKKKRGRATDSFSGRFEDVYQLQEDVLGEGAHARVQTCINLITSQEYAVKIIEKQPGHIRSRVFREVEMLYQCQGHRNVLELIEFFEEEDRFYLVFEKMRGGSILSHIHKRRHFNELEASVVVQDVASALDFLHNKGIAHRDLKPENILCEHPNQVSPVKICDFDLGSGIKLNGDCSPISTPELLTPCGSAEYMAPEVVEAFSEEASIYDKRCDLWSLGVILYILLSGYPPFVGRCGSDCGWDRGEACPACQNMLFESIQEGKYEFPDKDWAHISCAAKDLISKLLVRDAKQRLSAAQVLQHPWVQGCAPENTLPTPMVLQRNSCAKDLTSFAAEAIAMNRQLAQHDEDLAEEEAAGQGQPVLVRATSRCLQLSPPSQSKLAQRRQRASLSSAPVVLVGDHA
T1 sequence (P00533 25-1210): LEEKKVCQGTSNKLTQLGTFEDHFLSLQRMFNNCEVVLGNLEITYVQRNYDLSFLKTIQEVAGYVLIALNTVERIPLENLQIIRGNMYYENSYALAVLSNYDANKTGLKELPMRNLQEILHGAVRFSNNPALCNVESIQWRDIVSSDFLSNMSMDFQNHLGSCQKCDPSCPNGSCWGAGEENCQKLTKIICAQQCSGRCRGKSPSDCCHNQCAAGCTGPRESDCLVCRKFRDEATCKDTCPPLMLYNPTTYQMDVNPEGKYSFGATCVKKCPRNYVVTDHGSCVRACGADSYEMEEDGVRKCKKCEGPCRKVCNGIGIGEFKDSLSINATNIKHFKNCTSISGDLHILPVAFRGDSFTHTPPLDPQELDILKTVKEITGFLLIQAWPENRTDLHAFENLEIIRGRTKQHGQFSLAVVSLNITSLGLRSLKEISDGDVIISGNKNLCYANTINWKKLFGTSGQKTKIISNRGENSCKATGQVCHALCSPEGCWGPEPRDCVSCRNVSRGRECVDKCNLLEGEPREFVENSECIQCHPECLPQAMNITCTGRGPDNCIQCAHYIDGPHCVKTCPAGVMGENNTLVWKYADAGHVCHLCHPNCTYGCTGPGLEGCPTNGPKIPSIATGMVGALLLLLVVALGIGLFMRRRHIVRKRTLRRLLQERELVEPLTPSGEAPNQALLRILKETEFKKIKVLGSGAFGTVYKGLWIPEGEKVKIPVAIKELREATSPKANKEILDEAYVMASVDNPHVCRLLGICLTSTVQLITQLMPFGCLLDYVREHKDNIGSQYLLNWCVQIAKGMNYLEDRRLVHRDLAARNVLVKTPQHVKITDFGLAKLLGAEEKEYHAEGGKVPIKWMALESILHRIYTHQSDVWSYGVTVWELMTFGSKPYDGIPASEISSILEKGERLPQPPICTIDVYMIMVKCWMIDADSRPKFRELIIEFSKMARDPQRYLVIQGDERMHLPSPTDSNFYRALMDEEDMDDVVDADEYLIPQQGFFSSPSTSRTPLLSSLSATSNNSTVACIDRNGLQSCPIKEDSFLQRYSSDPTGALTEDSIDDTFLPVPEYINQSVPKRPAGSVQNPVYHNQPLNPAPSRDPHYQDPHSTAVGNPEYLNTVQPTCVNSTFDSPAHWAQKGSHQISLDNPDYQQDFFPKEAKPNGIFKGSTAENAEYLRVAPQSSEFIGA
T9 sequence (P31749 whole entry): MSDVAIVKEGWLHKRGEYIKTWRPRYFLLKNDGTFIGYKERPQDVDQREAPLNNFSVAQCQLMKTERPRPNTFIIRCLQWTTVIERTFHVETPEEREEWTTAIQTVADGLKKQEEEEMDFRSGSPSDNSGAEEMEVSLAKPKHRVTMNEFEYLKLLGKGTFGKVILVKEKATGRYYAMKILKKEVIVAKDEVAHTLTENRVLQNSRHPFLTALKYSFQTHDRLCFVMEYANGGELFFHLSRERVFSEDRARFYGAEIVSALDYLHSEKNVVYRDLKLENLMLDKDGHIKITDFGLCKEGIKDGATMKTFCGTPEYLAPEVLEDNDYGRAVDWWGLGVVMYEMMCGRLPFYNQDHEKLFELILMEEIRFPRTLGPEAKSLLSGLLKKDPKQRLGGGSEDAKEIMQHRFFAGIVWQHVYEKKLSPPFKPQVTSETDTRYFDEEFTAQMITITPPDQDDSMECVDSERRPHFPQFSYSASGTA
T12 sequence (P05771 1-673 isoform P05771-2): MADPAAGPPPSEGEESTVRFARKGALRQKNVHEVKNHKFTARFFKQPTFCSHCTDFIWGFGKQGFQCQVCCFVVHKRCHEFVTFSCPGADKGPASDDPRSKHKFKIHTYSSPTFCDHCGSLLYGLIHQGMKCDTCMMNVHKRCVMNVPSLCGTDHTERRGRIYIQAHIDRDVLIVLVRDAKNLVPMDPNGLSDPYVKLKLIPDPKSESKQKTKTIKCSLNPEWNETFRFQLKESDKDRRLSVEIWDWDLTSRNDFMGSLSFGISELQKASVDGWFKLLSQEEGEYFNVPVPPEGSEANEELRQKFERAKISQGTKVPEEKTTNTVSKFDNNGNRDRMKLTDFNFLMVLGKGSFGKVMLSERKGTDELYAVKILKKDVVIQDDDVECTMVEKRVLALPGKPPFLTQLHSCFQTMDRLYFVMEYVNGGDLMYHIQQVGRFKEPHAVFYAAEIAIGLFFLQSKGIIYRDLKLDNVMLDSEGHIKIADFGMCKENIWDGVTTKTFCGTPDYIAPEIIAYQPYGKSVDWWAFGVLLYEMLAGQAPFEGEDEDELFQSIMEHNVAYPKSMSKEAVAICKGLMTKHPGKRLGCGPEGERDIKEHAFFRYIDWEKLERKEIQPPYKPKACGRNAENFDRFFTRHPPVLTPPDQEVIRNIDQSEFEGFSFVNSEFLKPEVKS
T11 sequence (P00519 whole entry): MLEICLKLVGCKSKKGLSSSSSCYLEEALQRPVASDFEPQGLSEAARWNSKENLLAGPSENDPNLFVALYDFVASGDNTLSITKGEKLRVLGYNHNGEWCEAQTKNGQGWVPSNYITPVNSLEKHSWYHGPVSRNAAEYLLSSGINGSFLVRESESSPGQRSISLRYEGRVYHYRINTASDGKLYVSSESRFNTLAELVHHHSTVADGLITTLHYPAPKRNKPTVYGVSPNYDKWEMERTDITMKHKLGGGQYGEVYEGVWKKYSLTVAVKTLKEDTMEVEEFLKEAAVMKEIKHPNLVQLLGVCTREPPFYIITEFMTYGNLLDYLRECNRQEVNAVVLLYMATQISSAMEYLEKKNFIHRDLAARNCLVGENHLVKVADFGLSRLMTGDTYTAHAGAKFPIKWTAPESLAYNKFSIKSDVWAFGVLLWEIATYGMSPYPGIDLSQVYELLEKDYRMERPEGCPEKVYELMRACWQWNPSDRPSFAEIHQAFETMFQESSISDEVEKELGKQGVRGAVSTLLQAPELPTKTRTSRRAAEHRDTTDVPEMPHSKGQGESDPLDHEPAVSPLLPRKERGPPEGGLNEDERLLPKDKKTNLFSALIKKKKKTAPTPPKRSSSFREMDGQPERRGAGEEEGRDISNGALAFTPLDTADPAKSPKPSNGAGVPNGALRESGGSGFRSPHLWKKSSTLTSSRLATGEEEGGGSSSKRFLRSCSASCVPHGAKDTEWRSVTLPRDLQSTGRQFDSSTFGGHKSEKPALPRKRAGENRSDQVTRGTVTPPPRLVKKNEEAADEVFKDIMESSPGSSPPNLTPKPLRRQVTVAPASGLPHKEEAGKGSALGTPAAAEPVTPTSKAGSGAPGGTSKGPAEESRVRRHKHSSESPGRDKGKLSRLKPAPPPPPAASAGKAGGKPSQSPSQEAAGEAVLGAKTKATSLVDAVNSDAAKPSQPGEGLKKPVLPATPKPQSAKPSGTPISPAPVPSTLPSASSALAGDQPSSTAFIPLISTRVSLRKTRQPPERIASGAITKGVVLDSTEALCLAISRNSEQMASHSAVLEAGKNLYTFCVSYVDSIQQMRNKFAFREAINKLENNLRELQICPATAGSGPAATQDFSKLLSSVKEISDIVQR
T16 sequence (P06493 whole entry): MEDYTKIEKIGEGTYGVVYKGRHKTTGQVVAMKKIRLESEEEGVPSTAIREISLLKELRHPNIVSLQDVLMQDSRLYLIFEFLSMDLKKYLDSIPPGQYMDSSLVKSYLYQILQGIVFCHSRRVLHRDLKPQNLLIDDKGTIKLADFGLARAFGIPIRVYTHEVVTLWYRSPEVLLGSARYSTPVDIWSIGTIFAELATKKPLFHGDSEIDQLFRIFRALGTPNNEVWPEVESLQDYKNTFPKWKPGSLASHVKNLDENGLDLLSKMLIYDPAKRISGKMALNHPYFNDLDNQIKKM
T16 sequence (P14635 whole entry partner): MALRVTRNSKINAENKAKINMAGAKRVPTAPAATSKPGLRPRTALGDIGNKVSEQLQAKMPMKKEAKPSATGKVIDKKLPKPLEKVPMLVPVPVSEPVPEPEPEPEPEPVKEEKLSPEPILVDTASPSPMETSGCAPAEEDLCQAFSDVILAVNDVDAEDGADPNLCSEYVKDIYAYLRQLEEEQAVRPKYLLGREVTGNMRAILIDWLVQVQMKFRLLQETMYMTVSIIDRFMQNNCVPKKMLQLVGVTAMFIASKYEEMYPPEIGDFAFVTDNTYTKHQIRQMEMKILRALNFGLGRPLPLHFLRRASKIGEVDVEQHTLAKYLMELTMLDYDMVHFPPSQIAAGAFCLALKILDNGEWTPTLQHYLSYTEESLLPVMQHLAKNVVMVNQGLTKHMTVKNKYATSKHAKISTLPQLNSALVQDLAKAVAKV

O=c1[nH]ccc2cc(F)c(NS(=O)(=O)c3ccc(N4CC[C@@H](O)C4)s3)cc12 [LSN3213128, N-(6-Fluoro-1-oxo-1,2-dihydroisoquinolin-7-yl)-5-[(3R)-3-hydroxypyrrolidin-1-yl]thiophene-2-sulfonamide] gave an inhibition at 0.2 µM (EGFR; @ 0.2 uM) of -11.7%, an inhibition at 2 µM (EGFR; @ 2 uM) of 2.87% and an inhibition at 20 µM (EGFR; @ 20 uM) of -0.46%. For the same compound, the “AMPK T172 phosphorylation levels in vivo” value [1] was “showed no change”, the “tumor ZTP” value (MDA-MB-231met2 xenograft; MDA-MB-231met2 tumors) was “No detectable changes” and the “tumor ZMP levels” value (MDA-MB-231met2 xenograft; MDA-MB-231 met2 tumors, 30 and 60 mg/kg) was “dramatically elevated”. For the same compound, the “protein kinase activity, panel” value (protein kinase) was “no significant protein kinase activity”, the inhibition at 0.2 µM (WEE1; @ 0.2 uM) was 1.15% and the inhibition at 2 µM (WEE1; @ 2 uM) was 7.31%. For the same compound, the inhibition at 20 µM (WEE1; @ 20 uM) was 14.2%, the inhibition at 0.2 µM (BRK; @ 0.2 uM) was -32.5% and the inhibition at 2 µM (BRK; @ 2 uM) was -9.31%. The inhibition at 20 µM (BRK; @ 20 uM) was -3.2%, the inhibition at 0.2 µM (ROCK1; @ 0.2 uM) was 7.67% and the inhibition at 2 µM (ROCK1; @ 2 uM) was 10.9%. It also gave an inhibition at 20 µM (ROCK1; @ 20 uM) of 21.3%, an inhibition at 0.2 µM (SGK1; @ 0.2 uM) of -4.06% and an inhibition at 2 µM (SGK1; @ 2 uM) of 7.54%. It also gave an inhibition at 20 µM (SGK1; @ 20 uM) of 17.3%, an inhibition at 0.2 µM (IGF1R; @ 0.2 uM) of -0.761% and an inhibition at 2 µM (IGF1R; @ 2 uM) of 6.61%. It also gave an inhibition at 20 µM (IGF1R; @ 20 uM) of 60.3%, an inhibition at 0.2 µM (FLT1; @ 0.2 uM) of -9.26% and an inhibition at 2 µM (FLT1; @ 2 uM) of 4.29%. For the same compound, the inhibition at 20 µM (FLT1; @ 20 uM) was 33.8%, the inhibition at 0.2 µM (PKAa; @ 0.2 uM) was -7.44% and the inhibition at 2 µM (PKAa; @ 2 uM) was -0.808%. The inhibition at 20 µM (PKAa; @ 20 uM) was 3.8%, the inhibition at 0.2 µM (AKT1; @ 0.2 uM) was -1.76% and the inhibition at 2 µM (AKT1; @ 2 uM) was 5.52%. The inhibition at 20 µM (AKT1; @ 20 uM) was -6.9%, the inhibition at 0.2 µM (CDK2; @ 0.2 uM) was -10.2% and the inhibition at 2 µM (CDK2; @ 2 uM) was -1.29%. It also gave an inhibition at 20 µM (CDK2; @ 20 uM) of 29.2%, an inhibition at 0.2 µM (ABL; @ 0.2 uM) of -13.8% and an inhibition at 2 µM (ABL; @ 2 uM) of -14.6%. The inhibition at 20 µM (ABL; @ 20 uM) was -0.27%, the inhibition at 0.2 µM (PKCb2; @ 0.2 uM) was -3.72% and the inhibition at 2 µM (PKCb2; @ 2 uM) was -1.04%. For the same compound, the inhibition at 20 µM (PKCb2; @ 20 uM) was -3.76%, the inhibition at 0.2 µM (DYRK2; @ 0.2 uM) was -2.01% and the inhibition at 2 µM (DYRK2; @ 2 uM) was -0.829%. The inhibition at 20 µM (DYRK2; @ 20 uM) was 11.7%, the inhibition at 0.2 µM (FMS; @ 0.2 uM) was 2.06% and the inhibition at 2 µM (FMS; @ 2 uM) was 19.2%. It also gave an inhibition at 20 µM (FMS; @ 20 uM) of 48.4%, an inhibition at 0.2 µM (MNK2; @ 0.2 uM) of -1.93% and an inhibition at 2 µM (MNK2; @ 2 uM) of 4.7%. It also gave an inhibition at 20 µM (MNK2; @ 20 uM) of 5.92%, an inhibition at 0.2 µM (CDK1; @ 0.2 uM) of -4.14% and an inhibition at 2 µM (CDK1; @ 2 uM) of 4.5%. The inhibition at 20 µM (CDK1; @ 20 uM) was 5.99%, the inhibition at 0.2 µM (MET; @ 0.2 uM) was -5.89% and the inhibition at 2 µM (MET; @ 2 uM) was 8.99%. For the same compound, the inhibition at 20 µM (MET; @ 20 uM) was 17.8%.
